These results are taken from ChEMBL document CHEMBL4665642, “Anticancer profile of newly synthesized BRAF inhibitors possess 5-(pyrimidin-4-yl)imidazo[2,1-b]thiazole scaffold” (Bioorg Med Chem, 2019).

The test system of one experiment is MDA-MB-435. The experiment in a line: Cytotoxicity against human MDA-MB-435 cells assessed as cell viability at 10 uM incubated for 48 hrs by sulforhodamine B assay relative to control. Format: functional. The following applies: read-out: Activity.
A further experiment relates to T47D. The experiment in a line: Cytotoxicity against human T47D cells assessed as cell viability at 10 uM incubated for 48 hrs by sulforhodamine B assay relative to control. The class given is functional. Conditions: read-out: Activity. A general note: In SRB staining, fixed cells bind dye roughly in proportion to their protein.
In the next experiment the test system is NCI-H460. The experiment in a line: Cytotoxicity against human NCI-H460 cells assessed as cell viability at 10 uM incubated for 48 hrs by sulforhodamine B assay relative to control. Format: functional. The following applies: read-out: Activity.
The subject of the next experiment is KM12. The experiment in a line: Cytotoxicity against human KM12 cells assessed as cell viability at 10 uM incubated for 48 hrs by sulforhodamine B assay relative to control. The class given is functional. Conditions: read-out: Activity.
The next experiment deals with SK-OV-3. The experiment in a line: Cytotoxicity against human SK-OV-3 cells assessed as cell viability at 10 uM incubated for 48 hrs by sulforhodamine B assay relative to control. The class given is functional. The following applies: read-out: Activity.
The subject of the next experiment is CCRF-CEM. The experiment in a line: Cytotoxicity against human CCRF-CEM cells assessed as cell viability at 10 uM incubated for 48 hrs by sulforhodamine B assay relative to control. Conditions: read-out: Activity. The class given is functional.
In the next experiment the test system is A-375. The experiment in a line: Cytotoxicity against human A-375 cells assessed as reduction in cell viability by MTT assay. Format: functional, cell-based. (Formazan colour is commonly taken as a measure of viable cells.)
Another experiment deals with EKVX. The experiment in a line: Cytotoxicity against human EKVX cells assessed as cell viability at 10 uM incubated for 48 hrs by sulforhodamine B assay relative to control. Format: functional. Conditions: read-out: Activity.
The subject of another experiment is UACC-62. The experiment in a line: Cytotoxicity against human UACC-62 cells assessed as cell viability at 10 uM incubated for 48 hrs by sulforhodamine B assay relative to control. The class given is functional. The following applies: read-out: Activity.
The next experiment deals with K562. The experiment in a line: Cytotoxicity against human K562 cells assessed as cell viability at 10 uM incubated for 48 hrs by sulforhodamine B assay relative to control. Format: functional. Conditions: read-out: Activity.
The next experiment concerns NCI-H522. The experiment in a line: Cytotoxicity against human NCI-H522 cells assessed as cell viability at 10 uM incubated for 48 hrs by sulforhodamine B assay relative to control. Format: functional. The following applies: read-out: Activity.
Another experiment has as its system SK-MEL-28. The experiment in a line: Cytotoxicity against human SK-MEL-28 cells assessed as reduction in cell viability by MTT assay. Format: functional, cell-based.
The subject of the next experiment is NCI/ADR-RES. The experiment in a line: Cytotoxicity against human NCI/ADR-RES cells assessed as cell viability at 10 uM incubated for 48 hrs by sulforhodamine B assay relative to control. Format: functional. Conditions: read-out: Activity.
A further experiment relates to MDA-MB-468. The experiment in a line: Cytotoxicity against human MDA-MB-468 cells assessed as cell viability at 10 uM incubated for 48 hrs by sulforhodamine B assay relative to control. The class given is functional. Conditions: read-out: Activity.
For the next experiment, the system named is SF-268. The experiment in a line: Cytotoxicity against human SF-268 cells assessed as cell viability at 10 uM incubated for 48 hrs by sulforhodamine B assay relative to control. Conditions: read-out: Activity. The class given is functional.
The subject of the next experiment is Malme-3M. The experiment in a line: Cytotoxicity against human Malme-3M cells assessed as cell viability at 10 uM incubated for 48 hrs by sulforhodamine B assay relative to control. Format: functional. Conditions: read-out: Activity.
A further experiment concerns BT-549. The experiment in a line: Cytotoxicity against human BT-549 cells assessed as cell viability at 10 uM incubated for 48 hrs by sulforhodamine B assay relative to control. Format: functional. The following applies: read-out: Activity.
The next experiment concerns OVCAR-4. The experiment in a line: Cytotoxicity against human OVCAR-4 cells assessed as cell viability at 10 uM incubated for 48 hrs by sulforhodamine B assay relative to control. Format: functional. The following applies: read-out: Activity.
For a further experiment, the system named is HL-60(TB). The experiment in a line: Cytotoxicity against human HL-60(TB) cells assessed as cell viability at 10 uM incubated for 48 hrs by sulforhodamine B assay relative to control. Format: functional. Conditions: read-out: Activity.
Another experiment has as its system SW-620. The experiment in a line: Cytotoxicity against human SW-620 cells assessed as cell viability at 10 uM incubated for 48 hrs by sulforhodamine B assay relative to control. Format: functional. Conditions: read-out: Activity.

The IC50 is the concentration that gives 50% inhibition. In the case of `O=S(=O)(NCCNc1nccc(-c2c(-c3cccc(F)c3)nc3sccn23)n1)c1ccc(Cl)cc1`, the viability at 10 µM with MDA-MB-435 worked out at 26.3%; with T47D it was 43.2%; in the experiment with NCI-H460 it was 30.1%; in the experiment on KM12, 47.7%; with SK-OV-3, 94.9%; in the experiment with CCRF-CEM it was 50.5%. In addition, the viability at 10 µM in the experiment on EKVX worked out at 66.3%; in the experiment with UACC-62 it was 44.3%; in the experiment with K562 it was 41.3%; in the experiment with NCI-H522, 68.2%; in the experiment with NCI/ADR-RES, 67.7%; with MDA-MB-468, 64.5%. The viability at 10 µM in the experiment on SF-268 was 52.9%; in the experiment with Malme-3M it was 82.7%; with BT-549, 71.3%; with OVCAR-4, 63.6%; in the experiment on HL-60(TB) it was 96%; in the experiment with SW-620, 59.6%. Moreover, the IC50 in the experiment on A-375 and with SK-MEL-28 was 18.6 µM in each case.
On to `O=S(=O)(NCCCNc1nccc(-c2c(-c3cccc(F)c3)nc3sccn23)n1)c1ccc(O)cc1`, for which the viability at 10 µM stood at 33.4% in the experiment with MDA-MB-435; 48.8% in the experiment on T47D; 52.9% in the experiment on NCI-H460; 27.4% in the experiment with KM12; 86.4% in the experiment on SK-OV-3; 67.6% in the experiment with CCRF-CEM. For the same molecule, the viability at 10 µM came out at 78.8% in the experiment with EKVX; 60.1% with UACC-62; 55.1% with K562; 85% with NCI-H522; 79.1% in the experiment with NCI/ADR-RES; 60.4% in the experiment on MDA-MB-468. The viability at 10 µM in the experiment with SF-268 is 62.8%; in the experiment on Malme-3M, 107%; in the experiment on BT-549 it was 82.5%; with OVCAR-4 it was 82.4%; with HL-60(TB) it was 107%; with SW-620 it was 82.7%.
For `O=S(=O)(NCCNc1nccc(-c2c(-c3cccc(F)c3)nc3sccn23)n1)c1ccccc1`, the viability at 10 µM with MDA-MB-435 turned out to be 17.4%; with T47D, 18.8%; in the experiment with NCI-H460 it was 25.9%; in the experiment on KM12, 28.8%; with SK-OV-3, 57.1%; in the experiment on CCRF-CEM, 33.6%. Further, the viability at 10 µM in the experiment with EKVX turned out to be 53.4%; with UACC-62 it was 24.9%; in the experiment with K562 it was 23.9%; in the experiment with NCI-H522, 43.7%; in the experiment on NCI/ADR-RES, 46.3%; in the experiment with MDA-MB-468 it was 43.6%. For the same molecule, the viability at 10 µM with SF-268 came to 43.5%; in the experiment with Malme-3M, 68.5%; in the experiment with BT-549 it was 50.4%; with OVCAR-4, 40%; with HL-60(TB) it was 63.1%; with SW-620, 44.5%. In addition, the IC50 amounted to 11 µM in the experiment on A-375 and 19 µM in the experiment with SK-MEL-28.
With `O=S(=O)(NCCNc1nccc(-c2c(-c3cccc(F)c3)nc3sccn23)n1)c1cccc(F)c1`, the viability at 10 µM with MDA-MB-435 came to 41.9%; in the experiment with T47D, 49.1%; in the experiment with NCI-H460, 43%; in the experiment with KM12 it was 44.2%; in the experiment on SK-OV-3 it was 95.8%; in the experiment on CCRF-CEM it was 63.3%. Further, the viability at 10 µM was found to be 72.1% in the experiment with EKVX; 56.2% in the experiment with UACC-62; 48.6% in the experiment with K562; 75.8% with NCI-H522; 80.3% with NCI/ADR-RES; 68.6% in the experiment with MDA-MB-468. In addition, the viability at 10 µM in the experiment on SF-268 worked out at 68.6%; in the experiment with Malme-3M, 108%; with BT-549, 81.5%; with OVCAR-4, 64.8%; with HL-60(TB) it was 101%; with SW-620 it was 75.8%. For the same molecule, the IC50 with A-375 is 14.9 µM; in the experiment on SK-MEL-28, 18.3 µM.
